Assay results: patent publication US20150196033A1, “PESTICIDAL COMPOSITIONS AND PROCESSES RELATED THERETO” (priority 2012, published 2015)
Read-outs that look alike come from different tables or passages of the source.

Columns and labels:
Assay type in all cases: in vivo
[1] = test system: Beet Armyworm (BAW) (Spodoptera exigua); experiment: Bioassay on Beet Armyworm (BAW), 128-well diet tray assay; conditions: Spodoptera exigua, 168 h; for mortality at 50 µg/cm2: read-out: Rating BAW (% Control (or Mortality))
Experimental: (§1) Certain molecules disclosed in this document were tested against BAW and CEW using procedures described in the following examples. In the reporting of the results, the “BAW & CEW Rating Table” was used (See Table Section).
Bioassays on BAW (Spodoptera exigua)
(§2) Trays were covered with a clear self-adhesive cover and held at 25° C., 14:10 light-dark for five to seven days. Percent mortality was recorded for the larvae in each well; activity in the eight wells was then averaged. The results are indicated in the table entitled “Table ABC: Biological Results” (See Table Section).

[2] = test system: Corn Earworm (CEW) (Helicoverpa zea); experiment: Bioassay on Corn Earworm (CEW), 128-well diet tray assay; conditions: Helicoverpa zea, 168 h; for mortality at 50 µg/cm2: read-out: Rating CEW (% Control (or Mortality)); for mortality at 0.5 µg/cm2: 0.5 μg/cm2 on artificial diet, read-out: Rating CEW (% Control (or Mortality)), *Tested at 0.5 μg/cm2
Experimental: as §1
Bioassays on CEW (Helicoverpa zea)
as §2

[3] = test system: Green Peach Aphid (GPA) (Myzus persicae); experiment: Bioassay on Green Peach Aphid (GPA), foliar spray on cabbage seedlings; conditions: Myzus persicae, 72 h; 200 ppm foliar spray on cabbage seedlings, graded after three days, Abbott corrected % control; read-out: Rating GPA (% Control (or Mortality))
Experimental: Certain molecules disclosed in this document were tested against GPA using procedures described in the following example. In the reporting of the results, the “GPA Rating Table” was used (See Table Section).
Cabbage seedlings grown in 3-inch pots, with 2-3 small (3-5 cm) true leaves, were used as test substrate. The seedlings were infested with 20-50 GPA (wingless adult and nymph stages) one day prior to chemical application. Four pots with individual seedlings were used for each treatment. Test compounds (2 mg) were dissolved in 2 mL of acetone/MeOH (1:1) solvent, forming stock solutions of 1000 ppm test compound. The stock solutions were diluted 5× with 0.025% Tween 20 in H2O to obtain the solution at 200 ppm test compound. A hand-held aspirator-type sprayer was used for spraying a solution to both sides of […] leaves until runoff. Reference plants (solvent check) were sprayed with the diluent only containing 20% by volume of acetone/MeOH (1:1) solvent. Treated plants were held in a holding room for three days at approximately 25° C. and ambient relative humidity (RH) prior to grading. Evaluation was conducted by counting the number of live aphids per plant under a microscope. Percent Control was measured by using Abbott's correction formula (W.S. Abbott, “A Method of Computing the Effectiveness of an Insecticide” J. Econ. Entomol. 18 (1925), pp. 265-267) as follows.
Corrected % Control=100*(X−Y)/X • where • X=No. of live aphids on solvent check plants and • Y=No. of live aphids on treated plants

[4] = 50 μg/cm2 on artificial diet, second instar larvae, five to seven days
[5] = second instar larvae, five to seven days

Compound | mortality at 50 µg/cm2 [1, 4] | mortality at 0.5 µg/cm2 [2, 5] | further results
COc1ccc(N/C(=N/C(=O)Nc2ccc(-c3ncn(-c4ccc(C(F)(F)F)cc4)n3)cc2)SCOC(=O)C(C)C)c(C)c1 [Molecule A1, (E)-((N′-(4-methoxy-2-methylphenyl)-N-((4-(1-(4-(trifluoromethyl)phenyl)-1H-1,2,4-triazol-3-yl)phenyl)carbamoyl)carbamimidoyl)thio) methyl isobutyrate] | 50 to 100% | – | mortality at 50 µg/cm2 [2, 4]: 50 to 100%; mortality at 200 ppm [3]: 0%
COc1ccc(N/C(=N/C(=O)Nc2ccc(-c3ncn(-c4ccc(C(F)(F)F)cc4)n3)cc2)SC)c(C)c1 [Molecule A2, (Z)-Methyl N-(4-methoxy-2-methylphenyl)-N′-((4-(1-(4-(trifluoromethyl)phenyl)-1H-1,2,4-triazol-3-yl)phenyl)carbamoyl)carbamimidothioate] | 50 to 100% | – | mortality at 50 µg/cm2 [2, 4]: 50 to 100%; mortality at 200 ppm [3]: 0%
CC(C)C(=O)OCS/C(=N\C(=O)Nc1ccc(-c2ncn(-c3ccc(OC(F)(F)C(F)(F)F)cc3)n2)cc1)Nc1ccccc1C(C)C [Molecule A6, (Z)-((N-(2-Isopropylphenyl)-N′-((4-(1-(4-(pentafluoroethoxy)phenyl)-1H-1,2,4-triazol-3-yl)phenyl)carbamoyl)carbamimidoyl)thio)methyl isobutyrate] | 50 to 100% | – | mortality at 50 µg/cm2 [2, 4]: 50 to 100%; mortality at 200 ppm [3]: 0%
COc1cc(C)c(N/C(=N/C(=O)Nc2ccc(-c3ncn(-c4ccc(OC(F)(F)F)cc4)n3)cc2)SCOC(=O)C(C)C)c(C)c1 [Molecule A7, (E)-(N′-(2,6-Dimethyl-4-methoxyphenyl)-N-(4-(1-(4-(trifluoromethyoxy)phenyl)-1H-1,2,4-triazol-3-yl)phenylcarbamoyl)carbamimidoylthio)methyl isobutyrate] | 50 to 100% | – | mortality at 50 µg/cm2 [2, 4]: 50 to 100%; mortality at 200 ppm [3]: 0 to 80%
Cc1cccc(C)c1N/C(S)=N/C(=O)Nc1ccc(-c2ncn(-c3ccc(OC(F)(F)F)cc3)n2)cc1 [Molecule A11] | 50 to 100% | – | mortality at 50 µg/cm2 [2, 4]: 50 to 100%; mortality at 200 ppm [3]: 0 to 80%
Cc1ccc(C(C)C)c(N2C(=O)CS/C2=N\C(=O)Nc2ccc(-c3ncn(-c4ccc(OC(F)(F)F)cc4)n3)cc2)c1 [Molecule A87] | 50 to 100% | 50 to 100% | –
Cc1ccc(N2C(=O)CS/C2=N\C(=O)Nc2ccc(-c3ncn(-c4ccc(OC(F)(F)F)cc4)n3)cc2)c(C(C)C)c1 [Molecule A88] | 50 to 100% | 50 to 100% | –
Cc1ccc(F)c(N/C(S)=N/C(=O)Nc2ccc(-c3ncn(-c4ccc(OC(F)(F)F)cc4)n3)cc2)c1 [Molecule A89] | 50 to 100% | 50 to 100% | –
O=C(/N=C1\SCC(=O)N1c1ccc(Cl)cc1Cl)Nc1ccc(-c2ncn(-c3ccc(OC(F)(F)F)cc3)n2)cc1 [Molecule A92] | 50 to 100% | 50 to 100% | –
Cc1c(F)cccc1N1C(=O)CS/C1=N\C(=O)Nc1ccc(-c2ncn(-c3ccc(OC(F)(F)F)cc3)n2)cc1 [Molecule A93] | 50 to 100% | 50 to 100% | –
Cc1ccc(F)c(N2C(=O)CS/C2=N\C(=O)Nc2ccc(-c3ncn(-c4ccc(OC(F)(F)F)cc4)n3)cc2)c1 [Molecule A94] | 50 to 100% | 50 to 100% | –
CC(C)c1ccccc1N/C(S)=N/C(=O)Nc1ccc(-c2nnc(-c3ccc(OC(F)(F)C(F)(F)F)cc3)o2)cc1 [Molecule A96] | 50 to 100% | – | mortality at 50 µg/cm2 [2, 4]: 0%
CCc1cccc(C)c1N/C(S)=N/C(=O)Nc1ccc(-c2ncn(-c3ccc(OC(F)(F)F)cc3)n2)cc1 [Molecule A97] | 50 to 100% | 50 to 100% | –
COc1ccc(N/C(S)=N/C(=O)Nc2ccc(-c3ncn(-c4ccc(OC(F)(F)F)cc4)n3)cc2)c(C)c1 [Molecule A98] | 50 to 100% | 50 to 100% | –
Cc1cc(C)cc(N/C(S)=N/C(=O)Nc2ccc(-c3ncn(-c4ccc(OC(F)(F)F)cc4)n3)cc2)c1 [Molecule A100] | 50 to 100% | 50 to 100% | –
O=C(/N=C(\S)Nc1ccccc1Cc1ccccc1)Nc1ccc(-c2ncn(-c3ccc(OC(F)(F)F)cc3)n2)cc1 [Molecule A101] | 50 to 100% | 50 to 100% | –
CCc1cccc(C)c1N1C(=O)CS/C1=N\C(=O)Nc1ccc(-c2ncn(-c3ccc(OC(F)(F)F)cc3)n2)cc1 [Molecule A103] | 50 to 100% | 50 to 100% | –
Cc1cc(C)cc(N2C(=O)CS/C2=N\C(=O)Nc2ccc(-c3nnc(-c4ccc(OC(F)(F)F)cc4)o3)cc2)c1 [Molecule A104] | 0% | 50 to 100% | –

Compound | mortality at 50 µg/cm2 [1, 4] | mortality at 0.5 µg/cm2 [2, 5] | further results
O=C(/N=C1\SCC(=O)N1c1ccccc1Cc1ccccc1)Nc1ccc(-c2ncn(-c3ccc(OC(F)(F)F)cc3)n2)cc1 [Molecule A105] | 50 to 100% | 50 to 100% | –
Cc1cccc(N/C(S)=N/C(=O)Nc2ccc(-c3ncn(-c4ccc(OC(F)(F)F)cc4)n3)cc2)c1C(C)C [Molecule A106] | 50 to 100% | 50 to 100% | –
CC(C)c1c(F)cccc1N/C(S)=N/C(=O)Nc1ccc(-c2ncn(-c3ccc(OC(F)(F)F)cc3)n2)cc1 [Molecule A107] | 50 to 100% | 50 to 100% | –
Cc1cccc(N2C(=O)CS/C2=N\C(=O)Nc2ccc(-c3ncn(-c4ccc(OC(F)(F)F)cc4)n3)cc2)c1C(C)C [Molecule A108] | 50 to 100% | 50 to 100% | –
CC(C)c1c(F)cccc1N1C(=O)CS/C1=N\C(=O)Nc1ccc(-c2ncn(-c3ccc(OC(F)(F)F)cc3)n2)cc1 [Molecule A109] | 50 to 100% | 50 to 100% | –
COc1ccc(Cl)cc1N1C(=O)CS/C1=N\C(=O)Nc1ccc(-c2ncn(-c3ccc(OC(F)(F)F)cc3)n2)cc1 [Molecule A111] | 50 to 100% | 50 to 100% | –
CC(C)c1ccccc1N/C(S)=N/C(=O)Nc1ccc(-c2ncn(-c3ccc(C(F)(F)C(F)(F)C(F)(F)F)cc3)n2)cc1 [Molecule A113] | – | – | mortality at 50 µg/cm2 [1]: 50 to 100%; mortality at 50 µg/cm2 [2]: 0%
CC(C)c1ccccc1N/C(S)=N/C(=O)Nc1ccc(-c2ccn(-c3ccc(OC(F)(F)F)cc3)n2)cc1 [Molecule A114] | 50 to 100% | 50 to 100% | –
CC(C)c1ccccc1N1C(=O)CS/C1=N\C(=O)Nc1ccc(-c2ncn(-c3ccc(OC(F)(F)C(F)(F)F)cc3)n2)cc1 [Molecule A115] | 50 to 100% | 50 to 100% | –
CC(C)c1cc(F)ccc1N/C(S)=N/C(=O)Nc1ccc(-c2ncn(-c3ccc(OC(F)(F)F)cc3)n2)cc1 [Molecule A116] | 50 to 100% | 50 to 100% | –
CC(C)c1cc(F)ccc1N1C(=O)CS/C1=N\C(=O)Nc1ccc(-c2ncn(-c3ccc(OC(F)(F)F)cc3)n2)cc1 [Molecule A117] | 50 to 100% | 50 to 100% | –
CC(C)c1cccc(N/C(S)=N/C(=O)Nc2ccc(-c3ncn(-c4ccc(OC(F)(F)F)cc4)n3)cc2)c1 [Molecule A118] | 0% | – | mortality at 50 µg/cm2 [2, 4]: 0%
CC(C)n1nccc1N/C(S)=N/C(=O)Nc1ccc(-c2ncn(-c3ccc(OC(F)(F)F)cc3)n2)cc1 [Molecule A119] | 50 to 100% | 0 to 50% | –
CC(C)c1cccc(N2C(=O)CS/C2=N\C(=O)Nc2ccc(-c3ncn(-c4ccc(OC(F)(F)F)cc4)n3)cc2)c1 [Molecule A120] | 0% | – | mortality at 50 µg/cm2 [2, 4]: 0%
CC(C)n1nccc1N1C(=O)CS/C1=N\C(=O)Nc1ccc(-c2ncn(-c3ccc(OC(F)(F)F)cc3)n2)cc1 [Molecule A121] | 50 to 100% | 50 to 100% | –
O=C(/N=C(\S)Nc1ccccc1C(F)(F)F)Nc1ccc(-c2ncn(-c3ccc(OC(F)(F)F)cc3)n2)cc1 [Molecule A127] | 50 to 100% | – | mortality at 50 µg/cm2 [2, 4]: 0%
O=C(/N=C1\SCC(=O)N1c1ccccc1C(F)(F)F)Nc1ccc(-c2ncn(-c3ccc(OC(F)(F)F)cc3)n2)cc1 [Molecule A128] | – | 50 to 100% | mortality at 0.5 µg/cm2 ([1]; 0.5 μg/cm2 on artificial diet, second instar larvae, five to seven days, read-out: Rating BAW (% Control (or Mortality)), *Tested at 0.5 μg/cm2): 50 to 100%
